Publication PMC6272715, “Discovery of Novel Small Molecule Anti-HCV Agents via the CypA Inhibitory Mechanism Using O-Acylation-Directed Lead Optimization” (Molecules, 2015)

Legend:
hERG channels = target: T1, hERG channels (Homo sapiens, UniProt Q12809); test: hERG cardiac toxicity assay (automated QPatch, CHO cells expressing hERG); assay type: cell-based; settings: QPatch whole-cell recording
T1 construct: expressed in transfected cells; host or cells: CHO cells, stably transfected
Experimental: After intravenous administration, blood samples (0.2 mL) were collected at designated time points (0, 5, 15, 30, 45 min, 1, 2, 3, 5, 8, 12 and 24 h) from the eye venous sinus of the rats. The blood samples were centrifuged at 14800 rpm for 10 min to obtain the plasma fraction. The plasma samples were kept frozen (−20 °C) until analysis by a liquid chromatography-tandem mass spectrometry (LC-MS/MS).
Table S3. Pharmacokinetic parameters after intravenous administration of 25 to SD rats at […]
Pharmacokinetic Parameters 25 (Intravenous Injection of 2 mg 25/kg) Rat 1 Rat 2 a Rat 3 Mean ± SD […]
1 (intravenous injection of 2mg 25/kg) Rat 1 Rat 2 a Rat 3 Mean ± SD […]
a Rat 2: parts of the sample of 25 was injected into the subcutaneous tissues which lead to the uncertainty of the plasma concentration, so this rat was not incorporated into the calculation of pharmacokinetic parameters; b Cmax: maximum plasma concentration taken directly from measured values; c Tmax: time to reach Cmax; d AUC0-∞: integrated area under plasma concentration vs. time curve from time 0 to time infinity; e MRT: mean residence time; f t1/2: half-life. g N: parts of the data below the LLOQ, that result in the uncertainty of the pharmacokinetic parameters. hERG Cardiac Toxicity Assay of Compound 25 […]
After achieving break-in (whole-cell) configuration, the cells were recorded for 120 s to assess current stability. […]

[1] = Cell proliferation (cytotoxicity) assay, WST-1; assay type: cell-based; settings: human, Huh 7.5.1 cells
Experimental: Cell Proliferation Assay: Huh 7.5.1 cells were seeded at a density of 2 × 10^4 cells per well in 96-well plates overnight. The cells were respectively incubated with serial diluted compounds for 48 h, and the viability of Huh7.5.1 cells was determined in 96-well tissue culture plates using cell proliferation reagent WST-1 (Roche, Basel, Switzerland). The absorbance (OD450 /reference OD630) was measured to detect the cytotoxicity of compounds, according to the manufacturer’s protocol of Cell Proliferation Reagent WST-1.

T1 sequence (Q12809 whole entry): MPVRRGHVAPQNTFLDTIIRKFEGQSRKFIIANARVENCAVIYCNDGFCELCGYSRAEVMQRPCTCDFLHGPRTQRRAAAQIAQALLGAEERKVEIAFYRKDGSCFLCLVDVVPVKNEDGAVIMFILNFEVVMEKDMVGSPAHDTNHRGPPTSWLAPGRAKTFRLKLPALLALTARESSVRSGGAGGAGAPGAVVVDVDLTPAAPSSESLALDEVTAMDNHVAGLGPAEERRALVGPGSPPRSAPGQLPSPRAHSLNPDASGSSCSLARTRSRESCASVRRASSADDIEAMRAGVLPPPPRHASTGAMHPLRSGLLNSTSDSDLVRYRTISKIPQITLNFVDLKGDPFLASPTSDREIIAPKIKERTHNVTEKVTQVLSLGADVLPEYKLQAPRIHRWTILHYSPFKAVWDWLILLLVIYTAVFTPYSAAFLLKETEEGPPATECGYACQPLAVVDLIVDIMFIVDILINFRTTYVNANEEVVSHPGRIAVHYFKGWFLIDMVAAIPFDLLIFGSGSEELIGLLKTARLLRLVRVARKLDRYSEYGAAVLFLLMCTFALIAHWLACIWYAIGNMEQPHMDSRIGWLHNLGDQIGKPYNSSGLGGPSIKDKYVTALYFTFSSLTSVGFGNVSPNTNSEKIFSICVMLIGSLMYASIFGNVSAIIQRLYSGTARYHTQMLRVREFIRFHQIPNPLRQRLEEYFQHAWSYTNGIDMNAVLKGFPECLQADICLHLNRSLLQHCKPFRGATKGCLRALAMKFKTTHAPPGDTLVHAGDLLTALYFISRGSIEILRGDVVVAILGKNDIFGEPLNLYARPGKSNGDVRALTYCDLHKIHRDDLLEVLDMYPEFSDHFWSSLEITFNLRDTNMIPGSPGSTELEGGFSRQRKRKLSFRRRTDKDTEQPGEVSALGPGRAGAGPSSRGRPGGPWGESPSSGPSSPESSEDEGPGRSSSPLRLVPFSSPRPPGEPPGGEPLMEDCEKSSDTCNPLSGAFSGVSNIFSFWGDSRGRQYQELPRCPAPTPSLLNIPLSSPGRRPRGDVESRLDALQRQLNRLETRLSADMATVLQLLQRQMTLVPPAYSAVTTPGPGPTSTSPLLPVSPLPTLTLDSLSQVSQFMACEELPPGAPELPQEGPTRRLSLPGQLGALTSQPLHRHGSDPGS

## CCCCCCCC(=O)Oc1cccc(O)c1C(=O)NC(=O)NC1c2ccccc2-c2ccccc21 [Compound 25, 1-(2-Hydroxy-6-n-Octanoyloxybenzoyl)-3-(9H-fluoren-9-yl)-urea]
hERG channels
  IC50: > 15 µM
[1]; Table 4, 48 h
  CC50 at 48 h: > 16 µM
[1]; Table 5
  CC50 at 48 h: > 20 µM
